Structures are written as SMILES. “And” between values parts separate entries of the source, which are not always exact repeats. Identical values can stand only once. Like-named read-outs stand apart in the source and are kept apart here. Peptide text beside a SMILES is read from it. * marks the point of attachment. Biotin = O=C1N[C@H]2[C@H](CS[C@H]2CCCCC(=O)*)N1

One may read the Kd as the concentration at which binding is half-saturated.

Assay type in all cases: binding
One assay has as its target T1, TIP-1 (GST-TIP-1 fusion) (Homo sapiens, UniProt O14907, I73S).
T1 construct: made in house; host or cells: E. coli DH5alpha
T1 sequence (O14907 3-123 I73S): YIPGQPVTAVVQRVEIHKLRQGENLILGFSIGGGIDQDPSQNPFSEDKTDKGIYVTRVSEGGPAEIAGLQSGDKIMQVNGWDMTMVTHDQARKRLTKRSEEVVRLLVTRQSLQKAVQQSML
The assay can be described thus: G assay peptide titration, dissociation constants (Example 3, TABLE 4). The conditions noted are these: for OD (maximum absorbance) / Kd: biotinylated C-terminal 20-mer, 450 nm, 30 min. Here is the method:
(§1) Binding between these molecules was assessed using a modified ELISA. Briefly, a GST-TIP-1 fusion was produced that contained the entire PDZ domain of human TIP-1 (Insert as in EXAMPLE 2). In addition, biotinylated peptides corresponding to the C-terminal 20 amino acids of Tax and CD95 were synthesized and purified by HPLC. Binding between these entities was detected through a colorimetric assay using avidin-HRP to bind the biotin and a peroxidase substrate (G-assay, as described supra). By titrating the amount of peptide and protein added to these reactions, dissociation constants (Kd) were determined as an indication of relative affinity of the peptide and fusion protein association.
(§2) (at last wash leave PBS in wells until immediately adding next step) • 6) Add proteins at 50 ul per well on ice (1 to 2 hrs at 4° C.) • 7) Prepare Peptides in 2% BSA (2 ml/row or /columns) • 8) 3× wash with cold PBS • 9) Add peptides at 50 ul per well on ice (time on/time off)
(§3) Using the protocol for the ‘G’ assay described above, dissociation constants were determined by titrating the amount of peptide against a set concentration of PDZ-containing protein. Kd values were determined by identifying the peptide concentration that gave half-maximal binding to the PDZ protein. Different concentrations of PDZ-containing protein were plated in order to achieve maximal peptide binding values that were less than the absorbance maximum of the ELISA plate reader.
(§4) Proteins on the left are GST fusions to the PDZ domain(s) of protein indicated. Numbers in parenthesis indicate the number of PDZ domains present in the fusion construct, from the amino-terminus of the first number listed to the carboxyl terminus of the second. PDZ Ligands are listed across the top of the table, representing biotinylated peptides corresponding to the carboxy-terminal 20 amino acids of each protein. The first three columns following the PDZ indicate the concentration of fusion protein plated for the G assay, followed by the wavelength and time of reading from addition of TMB substrate. 450 nm indicates a reaction halted by addition of sulfuric acid and absorbance read at 450 nm. Values beneath each ligand indicate first the maximum absorbance followed by the observed Kd in uM. Numbers in the squares are the average of duplicate or quadruplicate reactions. Blank squares indicate that the Kd for the interaction was not tested under those conditions on the same sample plate. No binding to GST alone is observed.

The target of a further assay is T2, DLG1(1-2) (Homo sapiens, UniProt Q12959).
T2 construct: made in house; host or cells: E. coli (DH5alpha, BL21 or JM109)
T2 sequence (Q12959 213-413 limits assumed): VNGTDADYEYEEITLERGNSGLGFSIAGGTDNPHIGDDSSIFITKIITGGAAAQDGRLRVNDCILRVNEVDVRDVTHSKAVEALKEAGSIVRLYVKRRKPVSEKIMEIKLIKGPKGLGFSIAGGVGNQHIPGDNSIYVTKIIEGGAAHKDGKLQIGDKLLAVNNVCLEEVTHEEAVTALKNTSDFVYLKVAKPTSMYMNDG
Described as above. The conditions noted are these: biotinylated C-terminal 20-mer, 450 nm, 30 min. As for the experimental part:
as §1, §2, §3, §4

Another assay deals with T3, TIP1 (PDZ Domain 1) (Homo sapiens, UniProt O14907).
T3 construct: made in house; host or cells: E. coli (DH5alpha, BL21 or JM109)
T3 sequence (O14907 14-116): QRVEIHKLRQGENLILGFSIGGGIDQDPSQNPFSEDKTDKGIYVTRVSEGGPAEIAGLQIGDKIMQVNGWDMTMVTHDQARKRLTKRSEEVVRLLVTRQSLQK
Kind of assay: G' assay and Kd titration, TABLE 12. The note with it: A450 nm class of biotinylated PL peptide bound; 0 in conc columns = peptide 10 uM, protein 5 ug/ml. Here is the method:
The third column labeled “Peptide Optimal Concentration” in the tables is a number reflective of the binding interaction between the PL protein and PDZ protein. […] The column labeled “Protein Optimal Concentration” refers to the protein concentration used to assay PL interaction (in ug/ml); a ‘0’ is indicative of 5 ug/ml protein concentration; any other value represents the concentration (in ug/ml) used to determine the dissociation constant for a given interaction.
Finally, the seventh column labeled “Classification” is another measure of the level of binding. In particular, it provides an absorbance value at 450 nm which indicates the amount of PL peptide bound to the PDZ protein. […]
For convenience, the assay conditions described in this section are referred to as the “G′ assay” and the “G″ assay,” with the specific conditions described in the preceding section on G assays being referred to as the “G^0 assay.” The “G′ assay” is identical to the “G^0 assay” except at step (2) the peptide concentration is 10 uM instead of 20 uM. […] Correspondingly, it slightly increases the certainty that detected interactions are of sufficient affinity and half-life to be of biological importance and useful therapeutic targets.

Turning to `CC[C@H](C)[C@H](NC(=O)[C@H](CCC(=O)O)NC(=O)[C@H](CC(N)=O)NC(=O)[C@H](CCCNC(=N)N)NC(=O)[C@H](Cc1ccccc1)NC(=O)[C@H](CC(N)=O)NC(=O)[C@H](CO)NC(=O)[C@H](CC(N)=O)NC(=O)[C@H](CCC(=O)O)NC(=O)[C@H](CO)NC(=O)[C@H](CC(=O)O)NC(=O)[C@H](CO)NC(=O)[C@@H](NC(=O)[C@@H](NC(=O)[C@H](CC(=O)O)NC(=O)[C@H](CCCCN)NC(=O)CCCC[C@@H]1SC[C@@H]2NC(=O)N[C@@H]21)[C@@H](C)CC)[C@@H](C)O)C(=O)N[C@@H](CCC(N)=O)C(=O)N[C@@H](CO)C(=O)N[C@@H](CC(C)C)C(=O)N[C@H](C(=O)O)C(C)C` [CD95] (Biotin-KDITSDSENSNFRNEIQSLV-OH; C-terminus assumed), the “OD (maximum absorbance)” value on TIP-1 (GST-TIP-1 fusion) (TIP-1 plated at 0.3 ug/ml) was 2.6 and 3.5; on DLG1(1-2) (DLG1(1-2) plated at 0.3 ug/ml), 2.6 and 2.1. The dissociation constant (Kd) at TIP-1 (GST-TIP-1 fusion) (TIP-1 plated at 0.3 ug/ml, read-out: Kd) is 20 µM and 25 µM; at DLG1(1-2) (DLG1(1-2) plated at 0.3 ug/ml, read-out: Kd) it was 15 µM and 20 µM.
As to `CC(C)C[C@H](NC(=O)[C@H](C)NC(=O)[C@@H](NC(=O)[C@@H](NC(=O)[C@H](Cc1c[nH]cn1)NC(=O)[C@H](CC(C)C)NC(=O)CNC(=O)[C@H](CCC(N)=O)NC(=O)CNC(=O)CNC(=O)[C@H](C)NC(=O)[C@H](C)NC(=O)[C@H](CCCNC(=N)N)NC(=O)[C@H](C)NC(=O)[C@H](CO)NC(=O)[C@H](CC(=O)O)NC(=O)[C@H](CC(=O)O)NC(=O)[C@H](Cc1c[nH]c2ccccc12)NC(=O)[C@H](C)NC(=O)CCCC[C@@H]1SC[C@@H]2NC(=O)N[C@@H]21)C(C)C)[C@@H](C)O)C(=O)O` [LPAP] (Biotin-AWDDSARAAGGQGLHVTAL-OH; C-terminus assumed), the Classification at TIP1 (PDZ Domain 1) is recorded as 5 (A450 nm of 4 more than 2× repeated).
Regarding `CC[C@H](C)[C@H](NC(=O)[C@H](CCC(N)=O)NC(=O)CCCC[C@@H]1SC[C@@H]2NC(=O)N[C@@H]21)C(=O)N[C@@H](CO)C(=O)N1CCC[C@H]1C(=O)NCC(=O)NCC(=O)N[C@@H](CC(C)C)C(=O)N[C@@H](CCC(=O)O)C(=O)N1CCC[C@H]1C(=O)N1CCC[C@H]1C(=O)N[C@@H](CO)C(=O)N[C@@H](CCC(=O)O)C(=O)N[C@@H](CCCCN)C(=O)N[C@@H](Cc1c[nH]cn1)C(=O)N[C@@H](Cc1ccccc1)C(=O)N[C@@H](CCCNC(=N)N)C(=O)N[C@@H](CCC(=O)O)C(=O)N[C@H](C(=O)N[C@@H](CCC(=O)O)C(=O)N[C@H](C(=O)O)C(C)C)[C@@H](C)O` [Tax], the dissociation constant Kd is 0.005 µM on TIP-1 (GST-TIP-1 fusion) (Kd, TIP-1 plated at 0.1 ug/ml); 0.13 µM and 0.2 µM at DLG1(1-2) (Kd, DLG1(1-2) plated at 0.1 ug/ml). The “binding to TIP-1 relative to CD95 (comparison of dissociation constants)” value on TIP-1 (GST-TIP-1 fusion) (Tax:TIP-1 versus CD95:TIP-1) is listed as greater than 3000 fold. The “OD (maximum absorbance)” value at TIP-1 (GST-TIP-1 fusion) (TIP-1 plated at 0.1 ug/ml) is 3.3 and 2.1. Also, the “affinity for GST-TIP-1 relative to CD95 (FIG. 2A)” value at TIP-1 (GST-TIP-1 fusion) (equivalent peptide concentrations, equivalent amount of GST-TIP-1) was “much higher affinity than does CD95”. In addition, the Classification on TIP1 (PDZ Domain 1) is on record as 5 (A450 nm of 4 more than 2× repeated).

(Values after patent US20050282743A1, “Molecular interactions in cells” (Arbor Vita Corporation, priority 2001, published 2005).)
